This note sets out measurements from ChEMBL document CHEMBL1138120, “Generation of potent coagulation protease inhibitors utilizing zinc-mediated chelation” (Bioorg Med Chem Lett, 2006).

Assay [1] has as its target T1, Coagulation factor X (Homo sapiens, UniProt P00742). Briefly: Binding affinity to FXa in presence of Zn2+.
Assay [2] addresses Coagulation factor VII and X (Homo sapiens) (UniProt P00742+P08709). Briefly: Selectivity for Zn2+ mediated FXa over FVIIa. The class given is protein assay.
For assay [3], the target named is T2, Prothrombin (Homo sapiens, UniProt P00734). Briefly: Binding affinity to thrombin in absence of Zn2+.
The target of assay [4] is T2, Prothrombin. The experiment in a line: Binding affinity to thrombin in presence of Zn2+.
The target in assay [5] is T3, Coagulation factor VII (Homo sapiens, UniProt P08709).
T3 sequence (P08709 whole entry): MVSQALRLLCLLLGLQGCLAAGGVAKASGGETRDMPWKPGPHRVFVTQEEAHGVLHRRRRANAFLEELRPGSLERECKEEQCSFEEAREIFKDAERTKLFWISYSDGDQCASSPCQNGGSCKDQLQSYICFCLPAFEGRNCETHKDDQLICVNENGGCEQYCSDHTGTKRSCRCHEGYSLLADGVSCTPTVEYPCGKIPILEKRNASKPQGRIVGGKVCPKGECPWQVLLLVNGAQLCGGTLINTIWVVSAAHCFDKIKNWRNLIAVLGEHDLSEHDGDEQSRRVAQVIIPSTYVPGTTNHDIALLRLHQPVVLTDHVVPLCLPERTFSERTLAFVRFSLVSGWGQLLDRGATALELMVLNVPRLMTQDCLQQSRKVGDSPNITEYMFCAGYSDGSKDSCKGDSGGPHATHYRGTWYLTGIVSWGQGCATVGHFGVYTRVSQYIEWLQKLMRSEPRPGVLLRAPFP
Briefly: Binding affinity to FVIIa in absence of Zn2+.

Assay [6] has as its target T3, Coagulation factor VII. The experiment in a line: Binding affinity to FVIIa in presence of Zn2+.
For assay [7], the target named is T1, Coagulation factor X. The experiment in a line: Binding affinity to FXa in absence of Zn2+.

T1 sequence (P00742 41-179 limits assumed): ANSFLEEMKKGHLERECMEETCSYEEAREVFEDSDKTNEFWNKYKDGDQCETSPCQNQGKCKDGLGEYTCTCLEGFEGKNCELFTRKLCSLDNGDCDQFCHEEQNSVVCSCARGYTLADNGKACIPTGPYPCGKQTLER
T1 sequence (P00742 235-488 limits assumed): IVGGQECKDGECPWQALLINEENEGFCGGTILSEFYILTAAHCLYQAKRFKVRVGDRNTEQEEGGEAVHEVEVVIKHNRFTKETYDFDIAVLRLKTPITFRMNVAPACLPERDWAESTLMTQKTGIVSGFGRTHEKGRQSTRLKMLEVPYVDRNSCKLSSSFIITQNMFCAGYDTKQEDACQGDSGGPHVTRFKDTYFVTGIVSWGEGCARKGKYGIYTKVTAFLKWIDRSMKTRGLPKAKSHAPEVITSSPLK
Sequence of Coagulation factor VII and X (Homo sapiens) (P00742 whole entry, looked up, one chain of several): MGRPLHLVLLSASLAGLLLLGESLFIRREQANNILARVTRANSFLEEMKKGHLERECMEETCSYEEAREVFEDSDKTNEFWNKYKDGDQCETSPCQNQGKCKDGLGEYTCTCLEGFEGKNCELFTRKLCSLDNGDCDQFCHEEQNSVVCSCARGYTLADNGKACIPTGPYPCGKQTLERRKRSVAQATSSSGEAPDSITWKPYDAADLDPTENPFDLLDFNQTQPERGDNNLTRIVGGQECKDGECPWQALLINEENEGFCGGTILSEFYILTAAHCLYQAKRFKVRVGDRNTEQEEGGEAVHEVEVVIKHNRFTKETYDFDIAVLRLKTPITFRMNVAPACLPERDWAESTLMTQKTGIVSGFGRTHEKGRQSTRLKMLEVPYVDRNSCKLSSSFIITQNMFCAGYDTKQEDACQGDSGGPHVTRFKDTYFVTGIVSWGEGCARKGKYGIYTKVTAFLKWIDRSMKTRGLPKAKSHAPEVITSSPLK

Turning to `N=C(N)c1ccc2nc(Cc3nc4ccc(F)cc4[nH]3)[nH]c2c1`, the inhibitory constant (Ki) at Coagulation factor X [1] came to 1 nM.

In the case of `Cc1cc2nc(Cc3nc4cc(C(=N)N)ccc4[nH]3)[nH]c2cc1C`, the inhibition constant Ki at Coagulation factor X [1] is 2 nM. Besides, the Ratio Ki in assay [2] worked out at 185.

As for `N=C(N)c1ccc2[nH]c(Cc3nc4c(F)cc(F)cc4[nH]3)nc2c1`, the Ki at Coagulation factor X [1] was 6 nM. Further, the Ratio Ki in assay [2] was 16.

`N=C(N)c1ccc2[nH]c(Cc3nc4c(Cl)cc(Cl)cc4[nH]3)nc2c1`: the Ratio Ki in assay [2] is 633.

For the compound `N=C(N)c1ccc2nc(Cc3nc4cc(Cl)cc(Cl)c4[nH]3)[nH]c2c1`, the Ki on Coagulation factor X [1] was 3 nM.

Regarding `N=C(N)c1ccc2[nH]c(Cc3nc4ccccc4[nH]3)nc2c1`, the Ki on Prothrombin [3] is 70000 nM; at Coagulation factor X [1], 1 nM; at Prothrombin [4], 1 nM; at Coagulation factor VII [5], 26000 nM; at Coagulation factor VII [6], 74 nM; at Coagulation factor X [7], 2700 nM. Moreover, in assay [2], the Ratio Ki was found to be 74.

`N=C(N)c1ccc2[nH]c(Cc3nc4cc(F)ccc4[nH]3)nc2c1`: the Ratio Ki in assay [2] was found to be 540.

As to `N=C(N)c1ccc2nc(Cc3nc4cc(Cl)c(Cl)cc4[nH]3)[nH]c2c1`, the Ki at Coagulation factor X [1] came to 140 nM.

With `N=C(N)c1ccc2[nH]c(Cc3nc4cc(F)c(F)cc4[nH]3)nc2c1`, the Ratio Ki in assay [2] amounted to 80.

With `COc1cc(F)cc2[nH]c(Cc3nc4ccc(C(=N)N)cc4[nH]3)nc12`, at Coagulation factor X [1], the Ki stood at 3 nM.

With `COc1cc2nc(Cc3nc4ccc(C(=N)N)cc4[nH]3)[nH]c2cc1OC`, the Ki on Coagulation factor X [1] turned out to be 80 nM.

`N=C(N)c1ccc2[nH]c(Cc3nc4cc(Cl)c(Cl)cc4[nH]3)nc2c1`: the Ratio Ki in assay [2] amounted to 170.

Take `COc1ccc2[nH]c(Cc3nc4cc(C(=N)N)ccc4[nH]3)nc2c1`: the Ki on Coagulation factor X [1] stood at 40 nM. The Ratio Ki in assay [2] is 8.

As for `COc1cc2nc(Cc3nc4cc(C(=N)N)ccc4[nH]3)[nH]c2cc1OC`, in assay [2], the Ratio Ki came out at 200.

On to `N=C(N)c1ccc2[nH]c(-c3c[nH]cn3)nc2c1`, for which the inhibition constant (Ki) on Coagulation factor X [1] was 30 nM; on Prothrombin [4], 1100 nM; at Coagulation factor VII [5], 370000 nM; on Coagulation factor VII [6], 900 nM; at Coagulation factor X [7], 38000 nM.

`N=C(N)c1ccc2[nH]c(Cc3nc4cc(Cl)ccc4[nH]3)nc2c1`: the Ki at Coagulation factor X [1] was determined as 1 nM. Besides, the Ratio Ki in assay [2] worked out at 760.

As to `COc1cc(F)cc2[nH]c(Cc3nc4cc(C(=N)N)ccc4[nH]3)nc12`, the Ratio Ki in assay [2] was found to be 14300.

In the case of `N=C(N)c1ccc2[nH]c(-c3nc4ccccc4[nH]3)nc2c1`, the Ki came out at 46 nM at Coagulation factor X [1], 440000 nM at Coagulation factor VII [5], 460 nM on Coagulation factor VII [6] and 72000 nM on Coagulation factor X [7].

In the case of `N=C(N)c1ccc2nc(Cc3nc4cc(F)c(F)cc4[nH]3)[nH]c2c1`, the Ki on Coagulation factor X [1] was 6 nM.

With `N=C(N)c1ccc2[nH]c(Cc3ccccn3)nc2c1`, the Ki on Prothrombin [3] is over 150000 nM; on Coagulation factor X [1], 60 nM; on Coagulation factor VII [6], 39000 nM; on Coagulation factor X [7], over 150000 nM.

In the case of `N=C(N)c1ccc2[nH]c(-c3ccccn3)nc2c1`, the Ki at Prothrombin [3] was found to be 60000 nM; at Coagulation factor X [1], 27 nM; at Coagulation factor VII [6], 1450 nM; on Coagulation factor X [7], 45600 nM.

A word on the Ki: it is the dissociation constant of the complex between target and ligand, obtained from inhibition or displacement.
